What was measured:
[1] = molecular target: T1, EPHA2 (Homo sapiens, UniProt P29317); assay: Biochemical kinase profiling (Life Technologies)
T1 construct: purchased Life Technologies
Procedure: (§1) Purified PI3K Class I Lipid Kinase, including p110α/p85α, p110β/p85α, p110γ, and p110δ/p85α (Promega, Madison, WI, USA), was respectively incubated with B591 for 30 min at room temperature. The activity of PI3K was evaluated using a PI3-Kinase Activity ELISA kit (K-1000s, Echelon, Salt Lake City, UT, USA) according to the manufacture’s instructions. The assay is a competitive ELISA in which the signal is inversely proportional to the amount of PI(3,4,5)P3 produced. After the PI3-Kinase reactions are complete, reaction products are first mixed and incubated with a PI(3,4,5)P3 detector protein, then added to the PI(3,4,5)P3-coated microplate for competitive binding. A peroxidase-linked secondary detector and colorimetric detection is used to detect PI(3,4,5)P3 detector binding to the plate. The colorimetric signal is inversely proportional to the amount of PI(3,4,5)P3 produced by PI3-Kinase. The absorbance was measured at 450 nm with a Multilabel Reader (PerkinElmer, Waltham, MA, USA). ATP competition assays were executed with varying concentrations of ATP, and five concentrations of ATP were 5 μM, 25 μM, 50 μM, 100 μM, and 200 μM respectively. The IC50 values for inhibition of PI3Kβ by B591 were determined at indicated concentrations of ATP. In addition, B591 selectivity was tested against 39 kinases at Life Technologies.

[2] = molecular target: T2, FGFR1 (Homo sapiens, UniProt P11362); assay: Biochemical kinase profiling (Life Technologies)
T2 construct: purchased Life Technologies
Procedure: as §1

[3] = molecular target: T3, KDR (VEGFR2) (Homo sapiens, UniProt P35968); assay: Biochemical kinase profiling (Life Technologies)
T3 construct: purchased Life Technologies
Procedure: as §1

[4] = molecular target: PRKCQ (PKC theta) (Homo sapiens, UniProt Q04759); assay: Biochemical kinase profiling (Life Technologies)
Procedure: as §1

[5] = system: PI3K/Akt/mTORC1 and mTORC2 signaling in multiple cancer cell lines; assay: Western blot of PI3K downstream effectors in multiple tumor cell lines; format: cell-based; conditions: 5 h
Procedure: Fig. 2 B591 inhibits PI3K/Akt pathway in multiple cancer cell lines. a Representative images of Akt1 redistribution in IGF-1-treated cells in the absence or presence of B591. Scale bar represents 10 μm. Arrows indicate IGF-1-mediated membrane translocation detected by the image analysis algorithm. b Inhibition of mTORC1 and mTORC2 signaling in multiple cancer cell lines, exposed for 5 h to increasing concentrations of B591. c HepG2 cells were treated with DMSO or 20 μM of B591 for 5 h. Immunofluorescence (red) intensity reflects eIF4E subcellular distribution. Cells were visualized with high content reader. Representative images are shown, and scale bar represents 50 μm. d Nuclear-to-cytoplasmic ratio of eIF4E in five cancer cell lines was determined via high content reader. e The phosphorylation of AKT and ERK was determined by immunoblotting in RD cells in the presence of 10 μM of B591 after indicated time of exposure. f Inhibition of the phosphorylation of AKT and ERK in RD cells treated with B591, PI-103 or Rapamycin for 24 h was determined by immunoblotting
The key effectors downstream of PI3K were examined by western blot analysis in multiple tumor cell lines with different genetic background. […] Most recent study identified PtdIns(3,4,5)P3, which is generated by activated PI3K, as a direct upstream activator for mTORC2, highlighting the critical role of PI3K in mTORC2 activation. Therefore, the effect of B591 on mTORC2 signaling was evaluated by testing the phosphorylation levels of Akt at Ser473 and its substrate GSK3β at Ser9.

[6] = system: MDA-MB-231 and SUM-159PT monolayer and mammosphere cells; assay: Apoptosis of monolayer versus mammosphere cells (PE-Annexin V/7-AAD); format: cell-based, human; conditions: 48 h
Procedure: Cells were treated with indicated agents for 48 h, and cells were harvested and processed for apoptosis assay using the PE-Annexin V/7-AAD Apoptosis Detection Kit. d Representative flow cytometry plots of apoptosis inducing activity of B591 (10 μM) and paclitaxel (10 nM) on monolayer and mammosphere MDA-MB-231 cells. e B591 preferentially targeted CD44^high/CD24^low cells. Cells were treated with B591 or paclitaxel for 2 days. Following a 4-day recovery period, cells were co-stained with CD44 and CD24 antibodies and subjected to FACS analysis. Representative flow cytometry plots show the effect of B591 on CD44^high/CD24^low population in MDA-MB-231 cells in vitro. f B591 decreased mammosphere forming efficiency. Primary MDA-MB-231 mammospheres were treated with B591 or paclitaxel for 48 h. Results of the secondary mammosphere-formation assay are shown. Scale bar represents 40 μm. g B591 decreased the expression of CSC markers in MDA-MB-231 cells. Cells were treated with B591 or paclitaxel for 2 days. […] They label a gated population in plots with axes CD44 and CD24. / Panel E: DMSO is the vehicle control. Its printed value is included all the same.
Supplementary Fig. S10. B591 preferentially targets CSCs. […] Following a 4-day recovery period, the expression of CSC markers was analyzed with western blot analysis.

[7] = system: MDA-MB-231 and SUM-159PT mammospheres; assay: Secondary mammosphere-formation assay; format: cell-based, human; conditions: primary mammospheres treated 48 h, then passaged
Procedure: Cells were treated with indicated agents for 48 h, and cells were harvested and processed for apoptosis assay using the PE-Annexin V/7-AAD Apoptosis Detection Kit. d Representative flow cytometry plots of apoptosis inducing activity of B591 (10 μM) and paclitaxel (10 nM) on monolayer and mammosphere MDA-MB-231 cells. e B591 preferentially targeted CD44^high/CD24^low cells. Cells were treated with B591 or paclitaxel for 2 days. Following a 4-day recovery period, cells were co-stained with CD44 and CD24 antibodies and subjected to FACS analysis. Representative flow cytometry plots show the effect of B591 on CD44^high/CD24^low population in MDA-MB-231 cells in vitro. f B591 decreased mammosphere forming efficiency. Primary MDA-MB-231 mammospheres were treated with B591 or paclitaxel for 48 h. Results of the secondary mammosphere-formation assay are shown. Scale bar represents 40 μm. g B591 decreased the expression of CSC markers in MDA-MB-231 cells. Cells were treated with B591 or paclitaxel for 2 days. […]
In the mammosphere assay, MDA-MB-231 (Fig. 3f) and SUM-159PT (Supplementary Fig. S10D) cells were treated with B591 or paclitaxel, and the mammospheres were collected and subsequently passaged. Secondary Mammosphere-forming activity was determined, which reflects the self-renewal capability of CSCs. […]

Sequence of PRKCQ (PKC theta) (Q04759 whole entry): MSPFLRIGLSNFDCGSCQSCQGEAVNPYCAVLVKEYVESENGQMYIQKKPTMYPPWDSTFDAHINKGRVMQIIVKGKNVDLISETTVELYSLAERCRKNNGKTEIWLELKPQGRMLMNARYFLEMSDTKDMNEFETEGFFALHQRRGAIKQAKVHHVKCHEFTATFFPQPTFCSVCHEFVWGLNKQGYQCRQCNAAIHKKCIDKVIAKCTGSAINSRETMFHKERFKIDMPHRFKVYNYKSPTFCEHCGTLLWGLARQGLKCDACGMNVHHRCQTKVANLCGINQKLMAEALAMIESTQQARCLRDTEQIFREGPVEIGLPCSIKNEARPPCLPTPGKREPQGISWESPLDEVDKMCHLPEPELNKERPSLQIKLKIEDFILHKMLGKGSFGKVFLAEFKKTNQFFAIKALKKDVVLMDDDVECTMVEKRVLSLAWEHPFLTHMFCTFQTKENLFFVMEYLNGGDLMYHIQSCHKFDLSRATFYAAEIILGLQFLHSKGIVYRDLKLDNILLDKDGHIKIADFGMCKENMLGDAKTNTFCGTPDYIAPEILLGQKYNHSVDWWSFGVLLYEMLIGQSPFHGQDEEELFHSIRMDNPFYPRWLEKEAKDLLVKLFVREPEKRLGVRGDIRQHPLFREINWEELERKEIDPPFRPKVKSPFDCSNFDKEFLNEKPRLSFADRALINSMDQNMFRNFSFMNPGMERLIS
T3 sequence (P35968 20-1356): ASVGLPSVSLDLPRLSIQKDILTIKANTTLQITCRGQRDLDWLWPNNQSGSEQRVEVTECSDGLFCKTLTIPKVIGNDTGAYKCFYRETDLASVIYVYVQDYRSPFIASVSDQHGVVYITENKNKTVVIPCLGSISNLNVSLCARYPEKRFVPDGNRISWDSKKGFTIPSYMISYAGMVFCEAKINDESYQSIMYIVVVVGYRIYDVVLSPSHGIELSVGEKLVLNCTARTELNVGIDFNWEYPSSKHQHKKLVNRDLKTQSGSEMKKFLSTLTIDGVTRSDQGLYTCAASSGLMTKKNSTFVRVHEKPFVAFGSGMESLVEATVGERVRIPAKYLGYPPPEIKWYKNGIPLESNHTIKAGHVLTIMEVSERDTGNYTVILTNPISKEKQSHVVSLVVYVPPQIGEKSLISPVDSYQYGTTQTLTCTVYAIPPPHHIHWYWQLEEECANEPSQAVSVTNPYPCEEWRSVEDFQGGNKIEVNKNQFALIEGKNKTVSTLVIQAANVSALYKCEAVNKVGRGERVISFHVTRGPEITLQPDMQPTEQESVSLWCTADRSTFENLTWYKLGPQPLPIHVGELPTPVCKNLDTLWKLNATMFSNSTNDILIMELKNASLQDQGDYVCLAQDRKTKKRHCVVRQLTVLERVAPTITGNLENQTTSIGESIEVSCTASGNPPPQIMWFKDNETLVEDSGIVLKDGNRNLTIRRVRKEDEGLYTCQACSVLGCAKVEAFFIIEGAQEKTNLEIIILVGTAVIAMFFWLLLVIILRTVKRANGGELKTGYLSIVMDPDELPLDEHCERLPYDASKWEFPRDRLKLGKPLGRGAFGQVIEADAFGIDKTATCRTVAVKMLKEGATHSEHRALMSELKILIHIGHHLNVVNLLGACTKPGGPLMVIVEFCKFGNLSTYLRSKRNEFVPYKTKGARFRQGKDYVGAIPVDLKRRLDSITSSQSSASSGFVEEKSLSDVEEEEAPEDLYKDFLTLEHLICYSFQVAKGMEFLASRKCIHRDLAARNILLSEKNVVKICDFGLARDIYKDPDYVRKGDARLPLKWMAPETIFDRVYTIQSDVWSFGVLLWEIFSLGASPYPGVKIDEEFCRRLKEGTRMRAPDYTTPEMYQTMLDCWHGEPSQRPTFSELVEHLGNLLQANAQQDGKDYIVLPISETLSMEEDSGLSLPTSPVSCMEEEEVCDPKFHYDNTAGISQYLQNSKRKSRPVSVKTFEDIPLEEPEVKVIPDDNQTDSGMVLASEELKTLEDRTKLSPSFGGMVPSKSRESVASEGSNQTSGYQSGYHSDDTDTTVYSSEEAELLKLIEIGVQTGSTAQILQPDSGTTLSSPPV
T1 sequence (P29317 24-976): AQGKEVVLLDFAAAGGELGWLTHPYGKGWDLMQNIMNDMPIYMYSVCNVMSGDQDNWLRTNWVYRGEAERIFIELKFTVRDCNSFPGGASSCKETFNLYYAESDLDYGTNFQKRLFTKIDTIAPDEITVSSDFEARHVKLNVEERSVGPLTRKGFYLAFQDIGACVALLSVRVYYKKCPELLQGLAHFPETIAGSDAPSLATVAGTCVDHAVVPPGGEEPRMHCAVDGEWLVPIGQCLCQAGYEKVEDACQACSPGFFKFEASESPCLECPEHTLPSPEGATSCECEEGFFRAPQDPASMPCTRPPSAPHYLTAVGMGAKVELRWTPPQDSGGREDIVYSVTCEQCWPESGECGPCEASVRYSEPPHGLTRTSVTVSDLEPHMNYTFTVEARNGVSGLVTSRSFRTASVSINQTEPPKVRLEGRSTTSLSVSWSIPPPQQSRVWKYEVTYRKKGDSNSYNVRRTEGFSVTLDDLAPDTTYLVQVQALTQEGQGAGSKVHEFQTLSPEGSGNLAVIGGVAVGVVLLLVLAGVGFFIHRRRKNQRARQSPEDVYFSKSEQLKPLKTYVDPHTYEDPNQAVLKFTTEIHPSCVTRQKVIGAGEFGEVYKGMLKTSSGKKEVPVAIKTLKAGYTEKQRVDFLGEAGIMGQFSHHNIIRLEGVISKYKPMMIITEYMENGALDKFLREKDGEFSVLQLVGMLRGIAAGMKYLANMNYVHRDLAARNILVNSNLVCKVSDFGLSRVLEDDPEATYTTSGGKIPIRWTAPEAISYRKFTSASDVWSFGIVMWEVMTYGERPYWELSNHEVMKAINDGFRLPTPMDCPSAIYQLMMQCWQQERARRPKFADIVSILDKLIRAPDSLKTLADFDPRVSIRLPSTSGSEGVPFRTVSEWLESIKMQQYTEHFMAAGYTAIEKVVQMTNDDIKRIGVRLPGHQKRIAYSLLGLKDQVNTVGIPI
T2 sequence (P11362 22-822): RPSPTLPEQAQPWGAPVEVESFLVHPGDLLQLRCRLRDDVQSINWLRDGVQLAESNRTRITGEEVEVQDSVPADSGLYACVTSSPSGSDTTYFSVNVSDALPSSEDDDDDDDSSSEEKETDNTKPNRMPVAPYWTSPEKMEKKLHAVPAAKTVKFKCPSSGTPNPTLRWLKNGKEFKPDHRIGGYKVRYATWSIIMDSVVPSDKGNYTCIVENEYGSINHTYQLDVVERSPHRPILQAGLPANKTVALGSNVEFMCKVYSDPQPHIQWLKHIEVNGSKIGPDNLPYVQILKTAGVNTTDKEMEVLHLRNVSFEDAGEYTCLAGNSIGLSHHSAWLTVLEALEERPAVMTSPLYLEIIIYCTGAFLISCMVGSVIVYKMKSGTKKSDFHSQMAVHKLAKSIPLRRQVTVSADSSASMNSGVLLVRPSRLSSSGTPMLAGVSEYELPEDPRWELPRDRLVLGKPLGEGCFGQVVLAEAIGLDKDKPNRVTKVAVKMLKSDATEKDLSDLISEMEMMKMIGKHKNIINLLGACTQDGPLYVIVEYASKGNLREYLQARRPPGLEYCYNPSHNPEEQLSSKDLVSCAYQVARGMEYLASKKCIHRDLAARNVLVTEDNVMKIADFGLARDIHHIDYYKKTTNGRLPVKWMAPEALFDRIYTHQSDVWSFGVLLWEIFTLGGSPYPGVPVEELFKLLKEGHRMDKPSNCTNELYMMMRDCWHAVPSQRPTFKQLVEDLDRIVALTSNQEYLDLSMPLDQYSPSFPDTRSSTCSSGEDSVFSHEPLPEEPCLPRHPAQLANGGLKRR

IC50 [1]: > 500 µM
IC50 [2]: > 500 µM
IC50 [3]: > 500 µM
IC50 [4]: > 500 µM
SMILES: Cc1cc2c(cc1C)[n+](Cc1ccccc1Br)cn2Cc1ccc2c(c1)CCO2.[Br-] [B591, 3-(2-bromobenzyl)-1-((2,3-dihydrobenzofuran-5-yl)methyl) -5,6-dimethyl-1H-benzo[d]imidazol-3-ium bromide]
PI3K/Akt/mTORC1 signaling (phosphorylation of 4E-BP1, S6K1, S6) [5]: effectively inhibited PI3K/Akt/mTORC1 signaling
mTORC2 signaling: p-Akt (Ser473) and p-GSK3β (Ser9) ([5]; all tested cell types): concentration-dependent decrease
Phosphorylation of Akt at Thr308 ([5]; increasing concentrations): potently inhibited
Apoptosis induction, mammosphere versus monolayer populations [6]: preferentially induced the apoptosis of mammosphere populations
Secondary mammosphere-forming ability [7]: strikingly suppressed
